Experiments:
NF-κB P65 = NF-κB P65 in retinal nuclear extracts (ELISA); assay type: in vivo, Lewis rats; details: AICAR pretreatment; 3 hours after LPS; n=9; PBS-treated EIU 27.3±11.0, control 8.3±8.6
Experimental: Male Lewis rats ranging from 6-8 weeks old (Charles River, Wilmington, Mass.) were used for these studies. To study the effects of AICAR pretreatment, AICAR and PBS (for placebo treatment) were delivered via intraperitoneal injection of AICAR (50 mg/kg or 100 mg/kg body weight; Sigma) diluted in 150 μl PBS or equal volume of PBS at 6 hours before and at the same time as LPS injection. Four experimental groups of rats were compared: (1) Normal: no treatment (2) AICAR: normal rats treated with AICAR 6 hours before examination; (3) LPS: EIU rats treated with PBS; (4) LPS+AICAR: EIU rats treated with AICAR. Two additional groups of rats were used to study the effects of AICAR (50 mg/kg) given either at the same time as LPS injection or at 6 hours after LPS injection. To investigate the LPS-induced signal transduction pathway, NF-κB P65 protein levels translocated into the nuclei of retinal cell extracts were examined 3 hours after LPS injection. For the measurement of NF-κB activity, pooled retinas from six normal rats, nine EIU PBS-treated rats, and nine EIU AICAR-treated rats were analyzed. […] The amount of NF-κB in the nuclear extracts was analyzed by measuring the p65 protein levels with a NF-κB detection kit (p65 Transcription Factor Assay kit; Active Motif, Carlsbad, Calif.). NF-κB concentration was calculated and corrected for protein concentration.

[1] = system: TNF-α, IL-6 and IFN-γ in the retina; assay: Retinal cytokine mRNA (real-time PCR) and protein (ELISA) in EAU mice; assay type: in vivo, C57BL/6 (WT) mice
WT BMDCs = assay: LPS-stimulated BMDC maturation (FACS) and cytokine production (ELISA); assay type: cell-based, mice
Experimental: BMDCs were generated as previously described (Wang et al. (2005) IMMUNOL. LETT. 98:123-130). Briefly, bone marrow was flushed from the femurs and tibias of naive mice (6 to 8-week-old WT or AMPKα1 KO mice). The red blood cells were lysed using Red Blood Cell Lysing Buffer (Sigma). Approximately 2×10^6 cells were cultured in complete medium (RPMI 1640 medium containing 10% FBS, […], 10 mM HEPES [pH 7.4], 2 mM glutamine, 100 U/ml penicillin, and […]) including 10 ng/ml GM-CSF (Pepro Tech, London, England). Fresh media was added to the cells on day 4 of culture, and nonadherent cells and loosely adherent cells were collected as immature DCs on day 7. Immature DCs were stimulated with 100 ng/ml LPS (Salmonella typhimurium; Sigma) for 24 hours to obtain mature DCs. In some experiments, AICAR was added to the culture. […] After LPS stimulation for 24 hours, supernatant of the BMDC culture was collected and IL-6, TNF-α and IL12/23 p40 concentrations were measured (R&D system).

[2] = system: endotoxin-induced uveitis (EIU); assay: Clinical scoring of EIU by slit lamp examination; assay type: in vivo, Lewis rats; details: for EIU clinical inflammation score: 24 h after LPS, scale 0-4, mean±SD, PBS-treated EIU 3.6±0.7; for EIU clinical score: no suppression vs controls
Excerpt: Endotoxin-induced uveitis (EIU) is a rodent model of human uveitis, induced by a single systemic injection of endotoxin or lipopolysaccharide (LPS) (Rosenbaum et al., (1980) NATURE 286:611-613). Injected animals develop acute bilateral anterior inflammation, characterized by a breakdown of the blood-ocular barrier and accumulation of inflammatory cells. EIU has been used to investigate the pathogenesis of uveitis and to evaluate the therapeutic effect of several drugs (Herbort et al. (1989) EXP. EYE RES. 48:693-705; Avunduk et al. (2004) EXP. EYE RES. 79:357-365; Chang et al. (2006) BR. J. OPHTHALMOL. 90:103-108; Wakefield et al. (2010) BR. J. OPHTHALMOL. 94:271-274). The effect of AICAR on ocular inflammation associated with uveitis was assessed using the EIU rat model. Male Lewis rats ranging from 6-8 weeks old (Charles River, Wilmington, Mass.) were used for these studies. To study the effects of AICAR pretreatment, AICAR and PBS (for placebo treatment) were delivered via intraperitoneal injection of AICAR (50 mg/kg or 100 mg/kg body weight; Sigma) diluted in 150 μl PBS or equal volume of PBS at 6 hours before and at the same time as LPS injection. Four experimental groups of rats were compared: (1) Normal: no treatment (2) AICAR: normal rats treated with AICAR 6 hours before examination; (3) LPS: EIU rats treated with PBS; (4) LPS+AICAR: EIU rats treated with AICAR. Two additional groups of rats were used to study the effects of AICAR (50 mg/kg) given either at the same time as LPS injection or at 6 hours after LPS injection. Clinical scoring of EIU was performed as previously described (Pouvreau et al. (1998) J. NEUROIMMUNOL. 86:171-181). Slit lamp examination was conducted 24 hours after LPS injection in a masked fashion. The severity of EIU was graded from 0 to 4 by a masked investigator, using the following scale: 0=no inflammatory reaction; 1=discrete inflammation of the iris and conjunctival vessels; 2=dilation of the iris and conjunctival vessels with moderate flare in the anterior chamber; 3=hyperemia in iris associated with Tyndall effect in the anterior chamber; and 4=same clinical signs as 3 plus the presence of fibrin or synechiae.

[3] = AICAR 200 mg/kg treated EAU mice vs control EAU mice
[4] = 100 ng/ml LPS 24 hours with AICAR, dose-dependent manner
[5] = LPS stimulation for 24 hours with AICAR, ELISA

Compound: NC(=O)c1ncn([C@@H]2O[C@H](CO)[C@@H](O)[C@H]2O)c1N [AICAR, 5-aminoimidazole-4-carboxamide-1-β-d-ribofuranoside]
- NF-κB P65 protein level in retinal nuclear extracts (NF-κB P65): 18.2±3.9 ng/mg total protein
- IFN-γ mRNA in retina [1, 3]: significantly reduced
- IL-6 mRNA in retina [1, 3]: significantly reduced
- TNF-α mRNA in retina [1, 3]: significantly reduced
- IL-6 protein level in retina ([1]; AICAR 200 mg/kg treated EAU mice, 21 days after immunization, ELISA): suppressed
- CD40 expression on BMDCs (WT BMDCs; [4]): significantly suppressed
- CD80 expression on BMDCs (WT BMDCs; [4]): significantly suppressed
- CD86 expression on BMDCs (WT BMDCs; [4]): significantly suppressed
- I-A^b expression on BMDCs (WT BMDCs; [4]): significantly suppressed
- IL-6 production in BMDCs (WT BMDCs; [5]): significantly suppressed
- IL-12/23 p40 production in BMDCs (WT BMDCs; [5]): significantly suppressed
- TNF-α production in BMDCs (WT BMDCs; [5]): significantly suppressed
- EIU clinical inflammation score ([2]; AICAR 50 mg/kg i.p. 6 h before and at same time as LPS, n=15): 2.2±0.75
- EIU clinical inflammation score ([2]; AICAR 100 mg/kg i.p. 6 h before and at same time as LPS, n=12): 2.7±1.4
- Fibrin formation and posterior synechiae ([2]; AICAR-pretreated EIU animals vs PBS-treated EIU rats): rarely seen
- Inflammation in normal rats that received AICAR alone ([2]; age-matched normal rats, no LPS, n=6): No inflammation was detected
- EIU clinical score ([2]; single dose AICAR 50 mg/kg at 6 hours after LPS injection, n=6): 3.9±0.2
- EIU clinical score ([2]; single dose AICAR 50 mg/kg at the time of LPS injection, n=6): 3.7±0.5

From patent publication US10842806B2, “Methods for treating ocular inflammatory disorders” (Massachusetts Eye and Ear Infirmary, priority 2011, dated 2020)
